From patent US20260286295A1, “COMPOSITION FOR INDUCING DIRECT DIFFERENTIATION OF STEM CELLS INTO CORNEAL ENDOTHELIAL CELLS AND METHOD FOR INDUCING DIRECT DIFFERENTIATION USING SAME” (THE ASAN FOUNDATION, priority 2023, published 2026)

System: iPSCs
Test: ZO-1 immunocytochemical staining, efficiency of direct differentiation of iPSCs into CECs
Assay type: cell-based, human
Conditions: concluded from culture media that omit the constituent (Examples 3-4 to 3-7)
Procedure: To compare the effect on differentiation efficiency using ZO-1 marker staining of iPSC-derived CECs, CECs were fixed in 4% paraformaldehyde for 30 minutes, washed with PBS buffer, permeabilized with 0.5% Triton X-100, and blocked in PBST containing 1% bovine serum albumin (Sigma-Aldrich). […] Nuclei were counterstained for 10 minutes with 4′,6-diamidino-2-phenylindole (DAPI; Sigma-Aldrich), and fluorescence signals were detected using a laser scanning confocal microscope (Olympus, Tokyo, Japan) or a fluorescence microscope (EVOS, Life Technologies).

SMILES: Cc1cncc2cccc(S(=O)(=O)N3CCCNC[C@@H]3C)c12 [Example H-1152, (2S)-2-methyl-1-[(4-methyl-5-isoquinolinyl)sulfonyl]hexahydro-1H-1,4-diazepine]
- role of the constituent in direct differentiation from iPSCs into CECs: important

SMILES: O=S(=O)(c1cccc2cnccc12)N1CCCNCC1 [Fasudil, fasudil]
- role of the constituent in direct differentiation from iPSCs into CECs: important

SMILES: NC(=O)c1ccc(-c2nc(-c3ccc4c(c3)OCO4)c(-c3ccccn3)[nH]2)cc1 [SB431542, 4-[4-(2H-1,3-benzodioxol-5-yl)-5-(pyridin-2-yl)-1H-imidazol-2-yl]benzamide]
- role of the constituent in direct differentiation from iPSCs into CECs: important
